Assay results taken from PMC9964602, “Myxinidin-Derived Peptide against Biofilms Caused by Cystic Fibrosis Emerging Pathogens” (International Journal of Molecular Sciences, 2023).
Like-named read-outs stand apart in the source and are kept apart here. Where a SMILES comes first, the peptide text is derived from it. [ ]: non-standard residue; d: D form. Dap = NC[C@H](N)C(=O)O; Aib = CC(C)(N)C(=O)O

Columns and labels:
[1] = tested on: A. xylosoxidans DSM 2402; assay: microbe, parasite or virus in culture; format: cell-based, Achromobacter xylosoxidans
Method: (§1) Candida albicans ATCC 90028, Achromobacter xylosoxidans DSM 2402, and Stenotrophomonas maltophilia DSM 50170 were used in this study. Microbial strains were grown in Tryptone Soya Broth (TSB, VWR chemicals, Leuven, Belgium), supplemented with 0.1% glucose only for C. albicans at 37 °C overnight. Then, cells were harvested by centrifugation at 5000 rpm, 4 °C for 10 min, followed by washing in Phosphate Buffered Saline (PBS, Oxoid Ltd., Basingstoke, UK) three times. Standardized 1 × 10^6 CFU mL^-^1 inoculum was used in the next experiments. The minimum inhibitory concentrations (MIC) of WMR-4 against C. albicans, A. xylosoxidans, and S. maltophilia were determined using a broth microdilution method accord-ing to CLSI M27-A3 and […]-A9 guidelines. Concentrations of WMR-4 from 0.5 to 50 μM were added to wells of a 96-well microplate containing 1 × 10^6 CFU mL^-1 cells. Fluconazole at a concentration range from 1 to 50 μM and meropenem at a concentration range from 10 to 200 μM were used as control. The plate was incubated at 37 °C for 24/48 h due to poor growth after 24 h for the two bacterial species. Next, the absorbance at 590 nm was read using a microplate reader (Synergy H4; BioTek Instruments, Agilent Technologies, Winooski, VT, USA). MIC value was defined as a lowest concentration of WMR and analogues able to inhibit total microbial growth.

[2] = tested on: S. maltophilia DSM 50170; assay: microbe, parasite or virus in culture; format: cell-based, Stenotrophomonas maltophilia
Method: as §1

[3] = in vitro; format: in vitro ADME, bovine; details: serum
Method: The proteolytic stability of WMR and WMR-4 were determined in bovine serum acquired from ThermoFisher Scientific (Milan, Italy). Peptides were dissolved in sterile water to prepare stock solutions, then incubated with 50% of bovine serum to obtain a final concentration of 200 μM [69]. The mixture peptide/serum was incubated at 37 ± 1 °C for different times (0.25, 0.50, 1, 2, 3, 4, 5, and 16 h). At each pre-established time, an aliquot of reaction was taken, and acetonitrile was added to favor the precipitation of serum proteins. Then, the solution was cooled at 4 °C and centrifuged for 15 min at 13,000× g rpm. The supernatant was analyzed by HPLC in a Phenomenex Jupiter 4 μm Proteo 90 Å 250 × 21.20 mm column with a linear gradient of solvent B (0.1% TFA in acetonitrile) in solvent A (0.1% TFA in water) from 5 to 70% in 20 min with UV detection at 210 nm and a flow rate of 1 mL/min.

[4] = tested on: C. albicans ATCC 90028; format: cell-based, Candida albicans; details: ATCC 90028, 48 h
Method: as §1

Structure (SMILES) | MIC ([1]; DSM 2402, 48 h) [µM] | MIC ([2]; DSM 50170, 48 h) [µM] | also measured
CC[C@H](C)[C@H](NC(=O)CNC(=O)[C@@H](N)Cc1c[nH]c2ccccc12)C(=O)N[C@@H](CCCNC(=N)N)C(=O)N[C@@H](CCCNC(=N)N)C(=O)N[C@H](C(=O)N[C@@H](CC(C)C)C(=O)N[C@@H](CCCCN)C(=O)N[C@@H](Cc1ccc(O)cc1)C(=O)NCC(=O)N[C@@H](CCCCN)C(=O)N[C@@H](CCCNC(=N)N)C(=O)N[C@@H](CO)C(=O)N[C@H](CCCCN)C(N)=O)[C@@H](C)CC [WMR-1] (H-WGIRRILKYGKRS[dK]-NH2) | > 50 | > 50 | –
CC[C@H](C)[C@H](NC(=O)CNC(=O)[C@@H](N)Cc1c[nH]c2ccccc12)C(=O)N[C@@H](CCCNC(=N)N)C(=O)N[C@@H](CCCNC(=N)N)C(=O)N[C@H](C(=O)N[C@@H](CC(C)C)C(=O)N[C@@H](CCCCN)C(=O)N[C@@H](Cc1ccc(O)cc1)C(=O)NCC(=O)N[C@@H](CCCCN)C(=O)N[C@@H](CCCNC(=N)N)C(=O)N[C@H](CO)C(=O)N[C@@H](CCCCN)C(N)=O)[C@@H](C)CC [WMR-2] (H-WGIRRILKYGKR[dS]K-NH2) | > 50 | > 50 | –
CC[C@H](C)[C@H](NC(=O)[C@H](CCCNC(=N)N)NC(=O)[C@H](CCCNC(=N)N)NC(=O)[C@@H](NC(=O)C(C)(C)NC(=O)[C@@H](N)Cc1c[nH]c2ccccc12)[C@@H](C)CC)C(=O)N[C@@H](CC(C)C)C(=O)N[C@@H](CCCCN)C(=O)N[C@@H](Cc1ccc(O)cc1)C(=O)NCC(=O)N[C@@H](CCCCN)C(=O)N[C@@H](CCCNC(=N)N)C(=O)N[C@@H](CO)C(=O)N[C@@H](CCCCN)C(N)=O [WMR-3] (H-W[Aib]IRRILKYGKRSK-NH2) | > 50 | > 50 | –
CC[C@H](C)[C@H](NC(=O)CNC(=O)[C@@H](N)Cc1c[nH]c2ccccc12)C(=O)N[C@@H](CCCNC(=N)N)C(=O)N[C@@H](CCCNC(=N)N)C(=O)N[C@H](C(=O)N[C@@H](CC(C)C)C(=O)N[C@@H](CCCCN)C(=O)N[C@@H](Cc1ccc(O)cc1)C(=O)NCC(=O)N[C@@H](CCCCN)C(=O)N[C@@H](CCCNC(=N)N)C(=O)N[C@@H](CO)C(=O)N[C@@H](CN)C(N)=O)[C@@H](C)CC [WMR-5] (H-WGIRRILKYGKRS[Dap]-NH2) | 25 | 25 | –
C[C@@H](O)[C@H]1C(=O)N2C(C(=O)O)=C(S[C@@H]3CN[C@H](C(=O)N(C)C)C3)[C@H](C)[C@H]12 [MEM, meropenem, reference compound] | – | – | MIC ([1]; Achromobacter xylosoxidans, DSM2402, A. xylosoxidans DSM 2402, control drug, value outside parentheses, read-out: MIC): 65 mg/L; MIC ([2]; Stenotrophomonas maltophilia, DSM50170, S. maltophilia DSM 50170, control drug, value outside parentheses, read-out: MIC): 130 mg/L
CC[C@H](C)[C@H](NC(=O)CNC(=O)[C@@H](N)Cc1c[nH]c2ccccc12)C(=O)N[C@@H](CCCNC(=N)N)C(=O)N[C@@H](CCCNC(=N)N)C(=O)N[C@H](C(=O)N[C@@H](CC(C)C)C(=O)N[C@@H](CCCCN)C(=O)N[C@@H](Cc1ccc(O)cc1)C(=O)NCC(=O)N[C@@H](CCCCN)C(=O)N[C@@H](CCCNC(=N)N)C(=O)N[C@@H](CO)C(=O)N[C@@H](CCCCN)C(N)=O)[C@@H](C)CC [WMR] (H-WGIRRILKYGKRSK-NH2) | 50 | 50 | remaining at 0.25 h, 200 μM [3]: 75%; remaining at 0.5 h, 200 μM [3]: 75%; remaining at 1 h, 200 μM [3]: 68%; remaining at 2 h, 200 μM [3]: 53%; remaining at 3 h, 200 μM [3]: 36%; remaining at 5 h, 200 μM [3]: 20%
CC[C@H](C)[C@H](NC(=O)[C@H](CCCNC(=N)N)NC(=O)[C@H](CCCNC(=N)N)NC(=O)[C@@H](NC(=O)C(C)(C)NC(=O)[C@@H](N)Cc1c[nH]c2ccccc12)[C@@H](C)CC)C(=O)N[C@@H](CC(C)C)C(=O)N[C@@H](CCCCN)C(=O)N[C@@H](Cc1ccc(O)cc1)C(=O)NCC(=O)N[C@@H](CCCCN)C(=O)N[C@@H](CCCNC(=N)N)C(=O)N[C@H](CO)C(=O)N[C@H](CCCCN)C(N)=O [WMR-4] (H-W[Aib]IRRILKYGKR[dS][dK]-NH2) | 25 | 25 | remaining at 5 h, 200 μM [3]: 70%; remaining at 16 h, 200 μM [3]: ~30%; MIC [4]: 50 µM
